According to ChEMBL document CHEMBL5154832, “Design, Synthesis, and Proof-of-Concept of Triple-Site Inhibitors against Aminoacyl-tRNA Synthetases” (J Med Chem, 2022):
In brackets after ≈: the same amount, converted by molar mass.

How the values were obtained:
Staphylococcus aureus [1] = assay: Antibacterial activity against Staphylococcus aureus MRSA R3708 strain assessed as inhibition of bacterial growth incubated for 8 hrs by CLSI protocol based microdilution assay; assay type: functional
Escherichia coli [2] = assay: Antibacterial activity against Escherichia coli acraB strain assessed as inhibition of bacterial growth incubated for 8 hrs by CLSI protocol based microdilution assay; assay type: functional
Escherichia coli [3] = assay: Antibacterial activity against Escherichia coli ATCC 25922 strain assessed as inhibition of bacterial growth incubated for 8 hrs by CLSI protocol based microdilution assay; assay type: functional
Salmonella enterica [4] = assay: Antibacterial activity against Salmonella enterica 87 strain assessed as inhibition of bacterial growth incubated in M9 medium for 8 hrs by CLSI protocol based microdilution assay; assay type: functional
Pseudomonas aeruginosa = assay: Antibacterial activity against Pseudomonas aeruginosa ATCC27853 strain assessed as inhibition of bacterial growth incubated for 8 hrs by CLSI protocol based microdilution assay; assay type: functional
Staphylococcus aureus [5] = assay: Antibacterial activity against Staphylococcus aureus ATCC 29213 strain assessed as inhibition of bacterial growth incubated for 8 hrs by CLSI protocol based microdilution assay; assay type: functional
Enterococcus faecalis = assay: Antibacterial activity against Enterococcus faecalis ATCC 29212 strain assessed as inhibition of bacterial growth incubated for 8 hrs by CLSI protocol based microdilution assay; assay type: functional
Salmonella enterica [6] = assay: Antibacterial activity against Salmonella enterica 87 strain assessed as inhibition of bacterial growth incubated for 8 hrs by CLSI protocol based microdilution assay; assay type: functional
[7] = biological target: T1, Threonine--tRNA ligase (Salmonella enterica) (UniProt A0A3F3IEK2); assay: Binding affinity to recombinant salmonella enterica threonyl-tRNA synthetase assessed as change in melting temperature at 0.1 mM by fluorescence-based thermal shift assay
T1 sequence (whole entry): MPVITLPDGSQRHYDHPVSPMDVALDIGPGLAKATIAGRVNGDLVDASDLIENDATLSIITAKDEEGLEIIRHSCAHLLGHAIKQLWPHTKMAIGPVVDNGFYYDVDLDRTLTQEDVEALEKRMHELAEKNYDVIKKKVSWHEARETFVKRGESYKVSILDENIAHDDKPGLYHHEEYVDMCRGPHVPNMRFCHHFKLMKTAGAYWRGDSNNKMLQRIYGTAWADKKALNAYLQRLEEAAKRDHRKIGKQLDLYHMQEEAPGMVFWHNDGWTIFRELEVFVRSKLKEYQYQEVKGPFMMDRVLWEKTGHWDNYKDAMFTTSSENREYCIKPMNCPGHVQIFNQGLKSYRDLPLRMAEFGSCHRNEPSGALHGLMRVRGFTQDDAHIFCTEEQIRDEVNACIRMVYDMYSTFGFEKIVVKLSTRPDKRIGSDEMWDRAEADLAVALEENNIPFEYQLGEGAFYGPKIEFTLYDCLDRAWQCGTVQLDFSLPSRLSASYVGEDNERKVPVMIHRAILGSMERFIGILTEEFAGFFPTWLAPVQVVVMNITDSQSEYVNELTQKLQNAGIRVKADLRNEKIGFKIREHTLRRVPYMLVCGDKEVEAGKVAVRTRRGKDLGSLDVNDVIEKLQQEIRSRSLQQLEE

[8] = biological target: T1, Threonine--tRNA ligase (Salmonella enterica); assay: Inhibition of recombinant salmonella enterica threonyl-tRNA synthetase assessed as reduction in enzyme activity at 10 uM incubated for 20 min by Kinase Glo luminescence assay relative to control
Threonine--tRNA ligase [9] = biological target: T2, Threonine--tRNA ligase (Salmonella enterica, UniProt A0A3F3IEK2); assay: Binding affinity to full length recombinant salmonella enterica threonyl-tRNA synthetase assessed as dissociation constant in presence of ATP by isothermal titration calorimetry assay
T2 sequence (A0A3F3IEK2 whole entry): T1 sequence (whole entry)

Threonine--tRNA ligase [10] = biological target: T2, Threonine--tRNA ligase; assay: Binding affinity to full length recombinant salmonella enterica threonyl-tRNA synthetase assessed as dissociation constant in presence of glycine by isothermal titration calorimetry assay
Threonine--tRNA ligase [11] = biological target: T2, Threonine--tRNA ligase; assay: Binding affinity to full length recombinant salmonella enterica threonyl-tRNA synthetase assessed as dissociation constant by isothermal titration calorimetry assay
Threonine--tRNA ligase [12] = biological target: T2, Threonine--tRNA ligase; assay: Binding affinity to full length recombinant salmonella enterica threonyl-tRNA synthetase assessed as dissociation constant in presence of tRNA Leucine by isothermal titration calorimetry assay
Threonine--tRNA ligase [13] = biological target: T2, Threonine--tRNA ligase; assay: Binding affinity to full length recombinant salmonella enterica threonyl-tRNA synthetase assessed as dissociation constant in presence of L-threonine by isothermal titration calorimetry assay
Threonine--tRNA ligase [14] = biological target: T2, Threonine--tRNA ligase; assay: Inhibition of recombinant salmonella enterica threonyl-tRNA synthetase assessed as reduction in enzyme activity incubated for 20 min by Kinase Glo luminescence assay
Threonine--tRNA ligase [15] = biological target: T2, Threonine--tRNA ligase; assay: Binding affinity to full length recombinant salmonella enterica threonyl-tRNA synthetase assessed as dissociation constant in presence of tRNA Threonine by isothermal titration calorimetry assay

Compound	MIC (Staphylococcus aureus [1])	MIC (Escherichia coli [2])	MIC (Escherichia coli [3])	MIC (Salmonella enterica [4])	MIC (Pseudomonas aeruginosa)	MIC (Staphylococcus aureus [5])	MIC (Enterococcus faecalis)	MIC (Salmonella enterica [6])	ΔTm [7]	inhibition [8]	Kd (Threonine--tRNA ligase [9])	Kd (Threonine--tRNA ligase [10])	Kd (Threonine--tRNA ligase [11])	Kd (Threonine--tRNA ligase [12])	Kd (Threonine--tRNA ligase [13])	IC50 (Threonine--tRNA ligase [14])	Kd (Threonine--tRNA ligase [15])
C[C@@H](O)[C@H](N)C(=O)NCC=CCn1cnc2cc(Cl)c(Cl)cc2c1=O	≥ 128 µg/mL	64 µg/mL (≈ 166 µM)	≥ 128 µg/mL	16 µg/mL (≈ 41.5 µM)	≥ 128 µg/mL	≥ 128 µg/mL	64 µg/mL (≈ 166 µM)	64 µg/mL (≈ 166 µM)	17.6 °C	45%							
C[C@@H](O)[C@H](N)C(=O)N[C@@H](CNC(=O)CCn1cnc2cc(Cl)c(Cl)cc2c1=O)c1cccc(-c2ccc3c(c2)CNC3=O)c1	≥ 128 µg/mL	≥ 128 µg/mL	≥ 128 µg/mL		≥ 128 µg/mL	≥ 128 µg/mL	≥ 128 µg/mL	≥ 128 µg/mL	33.6 °C	> 99%	0.0751 µM	0.0444 µM	0.0354 µM	0.0368 µM	0.29 µM	0.019 µM	0.166 µM
C[C@@H](O)[C@H](N)C(=O)N[C@@H](CNC(=O)CCn1cnc2cc(Br)c(Cl)cc2c1=O)c1cccc(-c2ccc3c(c2)CNC3=O)c1	≥ 128 µg/mL	≥ 128 µg/mL	≥ 128 µg/mL		≥ 128 µg/mL	≥ 128 µg/mL	≥ 128 µg/mL	≥ 128 µg/mL	32.8 °C	> 99%						0.103 µM	
C[C@@H](O)[C@H](N)C(=O)N(CCCCCCn1cnc2cc(Br)c(Cl)cc2c1=O)Cc1cccc(-c2ccc3c(c2)CNC3=O)c1	64 µg/mL (≈ 94 µM)	64 µg/mL (≈ 94 µM)	≥ 128 µg/mL		64 µg/mL (≈ 94 µM)	64 µg/mL (≈ 94 µM)	64 µg/mL (≈ 94 µM)	≥ 128 µg/mL	23.5 °C	75%						5.68 µM	
C[C@@H](O)[C@H](N)C(=O)N[C@@H](CNC(=O)CCn1cnc2cc(Br)c(Cl)cc2c1=O)c1cccc(-c2ccc3[nH]ncc3c2)c1	≥ 128 µg/mL	≥ 128 µg/mL	≥ 128 µg/mL		≥ 128 µg/mL	≥ 128 µg/mL	≥ 128 µg/mL	≥ 128 µg/mL	28 °C	> 99%						0.194 µM	
C[C@@H](O)[C@H](N)C(=O)N[C@@H](CNC(=O)CCn1cnc2cc(Cl)c(Cl)cc2c1=O)c1cccc(-c2ccc(Cl)cc2)c1	4 µg/mL (≈ 6.48 µM)	8 µg/mL (≈ 13 µM)	≥ 128 µg/mL		4 µg/mL (≈ 6.48 µM)	4 µg/mL (≈ 6.48 µM)	4 µg/mL (≈ 6.48 µM)	≥ 128 µg/mL	20.1 °C	75%						3.29 µM	
